Data on 1 compound can be found in patent US10765638B2, “Particle formulation with polycation complex” (Yale University, priority 2017, dated 2020).

The structures appear in SMILES notation. “Also recorded” adds a separate entry of the source.

The test system of one data set is D54 cells. The experiment in a line: Radiation clonogenic survival assay. It counts as cell-based. As for the experimental part: (§1) Radiation (XRT) doses of either 0, 2, 4, or 6 Gy were delivered with a Precision X-ray 320-kV orthovoltage unit at a dose rate of 2 Gy/45 seconds (PXI X-Ray Systems). Twenty-four hours following XRT cells were washed, trypsinized, and re-plated in triplicate wells to determine clonogenic survival. […] Growth rates were determined by CellTiter 96 Non-Radioactive Cell Proliferation Assay (Promega; Madison, Wis., USA) according to the manufacturer's directions. For each experiment one thousand cells were seeded in triplicate wells in 96-wells plates. The following day, cell cultures were treated with NGI-1 (1 μM), Temozolomide (TMZ, 10 μM), Etoposide (VP-16, 0.1 μM) or combinations for 5 days. Absorbance at 540 nm was measured using the spectrophotometric reading (BioTek Synergy 2; Winooski, Vt. USA).

The next data set deals with T98G cells. The experiment in a line: Radiation clonogenic survival assay. It counts as cell-based. The settings on record: 10 μM NGI-1. As for the experimental part:
as §1

Another data set deals with U251 cells. Nature of the data set: Radiation clonogenic survival assay. Type of data set: cell-based. Conditions: 10 μM NGI-1. The procedure:
as §1

For data set [1], the system named is SKMG3 cells. Nature of the data set: Radiation clonogenic survival assay. Type of data set: cell-based, human. As for the experimental part: as §1
In data set [2] the test system is D54, SKMG3, T98G or U251 cells. The experiment in a line: Glioma cell proliferation (CellTiter 96), NGI-1 alone or with cytotoxic chemotherapy. It counts as cell-based. As for the experimental part:
as §1

The test system of data set [3] is SKMG3 cells. The experiment in a line: Phospho-γH2AX foci formation after radiation. It counts as cell-based, human. The settings on record: 2 hours after 4 Gy, 10 μM NGI-1. As for the experimental part:
(§2) To determine histone H2AX phosphorylation (γH2AX), cells were cultured on glass cover slips and pre-treated with either vehicle or NGI-1 for 48 hours followed by radiation treatment. Samples were fixed with 4% neutral-buffered formaldehyde, washed (0.1% triton in PBS for 30 minutes) and incubated for 1 hour with protein-blocking solution (PBS containing 10% normal goat-horse serum; Sigma-Aldrich, Saint Louis, Mich., US). Next, the slides were incubated with primary anti-phospho-histone γH2AX S139 (1:500, Millipore-Upstate, Billerica, Mass., US) followed by incubation with secondary antibody Alexa Fluor 555-conjugated goat anti-mouse IgG (1:750, Molecular probes/Invitrogen, Carlsbad, Calif., US), for 1 hour at room temperature. Nuclei were stained using DAPI containing vectashield mounting solution (Vector Labs). Confocal cellular images were captured with an inverted Zeiss LSM 510 Pascal laser confocal microscope (C. Zeiss, Jenna, Germany), using a 63/1.4 plan-apochromat objective. Five randomly selected fields s per slide were analyzed. Cells were counted using the ImageJ program, public domain Java image processing software.

Data set [4] relates to SKMG3-CD8-EGFR cells. The experiment in a line: Radiation clonogenic survival assay. It counts as cell-based, human. Conditions: 10 μM NGI-1. As for the experimental part: as §1
The CD8 cDNA was a gift from Paula Kavathas (Yale University). The CD8-EGFR was constructed according to a strategy that generated a constitutively active IGF-1R (24). The extracellular domain of CD8 was PCR amplified with a 5′ XbaI and 3′ SalI restriction site and cloned in-frame with the intracellular kinase domain of EGFR using the pDCB5-EGFR plasmid. SKMG3-CD8-EGFR cells were generated by Lipofectamine (Life Technologies) transfection of the plasmid followed by selection with 500 μg/ml G418. Expression of CD8-EGFR was validated by western blot analysis of the wild type and CD8-EGFR.

The subject of data set [5] is SKMG3-CD8-EGFR cells. Nature of the data set: Phospho-γH2AX foci formation. Type of data set: cell-based, human. As for the experimental part:
as §2
The CD8 cDNA was a gift from Paula Kavathas (Yale University). The CD8-EGFR was constructed according to a strategy that generated a constitutively active IGF-1R (24). […]

The subject of another data set is PC9-GR cells. The experiment in a line: Apoptosis by Annexin V flow cytometry. It counts as cell-based. The settings on record: NGI-1 treatment alone. As for the experimental part:
(§3) Briefly, 1×10^6 cells/sample were collected, washed in PBS, pelleted, and resuspended in incubation buffer (10 mm HEPES/NaOH, pH 7.4, 140 mm NaCl, 2.5 mm CaCl2) containing 1% annexin V and 1% 7-Amino-actinomycin D or propidium iodide, to identify dead cells. […] First-line analysis was performed with Flow Jo software. Approximately 50,000 cells were analyzed per experiment, and the mean value was obtained from 3 independent assays.

The subject of a further data set is parental PC9 cells. The experiment in a line: Apoptosis by Annexin V flow cytometry. Conditions: NGI-1 10 μM, 48 h. Type of data set: cell-based. The procedure:
as §3
On the technique in general: In flow cytometry, cells or beads pass a laser one at a time.

The target of a further data set is T1, EGFR (Homo sapiens, UniProt P00533, DEL746-750).
T1 construct: endogenous in cells; host or cells: HCC827-GR NSCLC cells (MET amplified)
Type of data set: cell-based. The settings on record: HCC827-GR cells.

Another data set relates to PC9-ERLucT cells. The experiment in a line: ER-LucT glycosylation reporter luciferase assay in vitro. The settings on record: after 24 h, equivalent concentrations of NGI-1 dissolved in DMSO or via NP. Type of data set: cell-based. From the text:
To test the hypothesis that NGI-1 could enhance TKI therapy in EGFR mutant and TKI resistant NSCLC, a NGI-1 nanoparticle (NGI-NP) formulation was developed by nanoprecipitation of a NGI-1 PEI complex. All nanoparticle preparations were confirmed by DLS and the average particle size was 120±10 nm. To assess the activity of the NGI-1 NPs a PC9 cell line with stable expression of the ER-LucT glycosylation reporter (Contessa at al., Clin Cancer Res., 16(12):3205-14 (2010)), a luciferase engineered to be expressed in the endoplasmic reticulum with N-linked glycosylation sites, was established. Under normal cell conditions glycosylation of the luciferase blocks activity and luminescence. However, under conditions of decreased glycosylation luciferase activity is restored with a measurable increase in luciferase activity. Equivalent concentrations of NGI-1, either dissolved in DMSO or via NP, activated luminescence˜6 fold after 24 h in these PC9-ERLucT cells in vitro (FIG. 13A).

A further data set can be described thus: Solubility. It counts as physicochemical.
For data set [6], the system named is non-transformed cell lines, primary human dermal fibroblasts, and neural progenitor cells. The settings on record: Lopez-Sambrooks 2016, Hafirassou 2017, Puschnik 2017; cited from earlier work.

On to `Cc1cnc(NC(=O)c2cc(S(=O)(=O)N(C)C)ccc2N2CCCC2)s1` [NGI-1, 5-(dimethylsulfamoyl)-N-(5-methyl-1,3-thiazol-2-yl)-2-(pyrrolidin-1-yl)benzamide], for which the entries for the “dose enhancement factor (DEF) at a surviving fraction of 0.4” value in the data set with D54 cells (10 μM NGI-1) and in the data set with SKMG3 cells [1] (10 μM NGI-1) were 1.3 and 1.2, respectively. Further, the “survival fraction at 2 Gy (SF2Gy)” value with D54 cells (10 μM NGI-1 48 hours before radiation, 69% without NGI-1) is on record as 51%; with SKMG3 cells [1] (10 μM NGI-1 48 hours before radiation, 87% without NGI-1) it was 77%. The “effect on SF2Gy” value in the data set with T98G cells and in the data set on U251 cells was “unaffected” in each case. The “glioma cell line proliferation, dose response” value in [2] (D54, SKMG3, U251 and T98G, 5 days of drug exposure) is listed as “sensitive”. The “proliferation, NGI-1 combined with TMZ or VP-16” value in data set [2] (D54 and SKMG3, NGI-1 1 μM with TMZ 10 μM or VP-16 0.1 μM, 5 days, not synergistic) is “further reduced glioma cell proliferation”. For the same compound, the “enhancement of the anti-proliferative effects of TMZ or VP-16” value in data set [2] (T98G or U251 cells, NGI-1 1 μM, 5 days) is on record as “did not enhance”. Moreover, in the data set on SKMG3 cells [3], the “increase of phospho-γH2AX foci formation compared to radiation alone (factor)” value is 1.2. Moreover, the “radiosensitization by NGI-1 (radiation clonogenic survival)” value in the data set with SKMG3-CD8-EGFR cells [4] is listed as “prevented radiosensitization”. Moreover, in the data set on SKMG3-CD8-EGFR cells [5], the phospho-γH2AX foci formation result was “no effect”. For the same compound, the induction of apoptosis result in the data set with PC9-GR cells was “no pro-apoptotic effect”; in the data set with parental PC9 cells, “does not induce apoptosis”. At EGFR, the EGFR phosphorylation entry is reported as “significantly reduced”. The “activation of luminescence (luciferase activity)” value in the data set with PC9-ERLucT cells is given as roughly 6 fold. The solubility entry in “Solubility” was “low solubility; also recorded: solubility remains a significant challenge”. Further, the toxicity entry in [6] is reported as “no significant toxicity”.
